This assay addresses α4β2δ GABAAR (Mus musculus (alpha4); Rattus norvegicus (beta2); Homo sapiens (delta), UniProt P63138+Q9D6F4). Briefly: ultrafast agonist application, outside-out macropatch. Type of assay: cell-based.

The values that follow come from PMC2213567 (The Journal of General Physiology, 2008).

The Kd is the equilibrium constant for the complex coming apart.

The structures appear in SMILES notation.

Chain of α4β2δ GABAAR (Q9D6F4 36-552): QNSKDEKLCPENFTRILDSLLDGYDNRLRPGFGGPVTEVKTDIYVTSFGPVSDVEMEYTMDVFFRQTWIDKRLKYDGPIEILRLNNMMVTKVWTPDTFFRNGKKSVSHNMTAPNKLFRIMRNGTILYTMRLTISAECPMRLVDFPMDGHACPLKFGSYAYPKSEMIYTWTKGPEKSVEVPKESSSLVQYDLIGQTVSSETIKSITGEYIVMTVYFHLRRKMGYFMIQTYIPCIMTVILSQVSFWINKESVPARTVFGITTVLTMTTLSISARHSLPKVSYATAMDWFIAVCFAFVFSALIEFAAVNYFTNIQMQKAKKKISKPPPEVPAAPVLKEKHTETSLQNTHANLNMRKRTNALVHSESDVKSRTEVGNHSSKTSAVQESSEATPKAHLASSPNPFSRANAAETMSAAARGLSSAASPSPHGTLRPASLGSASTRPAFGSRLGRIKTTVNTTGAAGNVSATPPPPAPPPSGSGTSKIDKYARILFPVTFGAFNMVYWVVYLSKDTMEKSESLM
Chain of α4β2δ GABAAR (P63138 26-474): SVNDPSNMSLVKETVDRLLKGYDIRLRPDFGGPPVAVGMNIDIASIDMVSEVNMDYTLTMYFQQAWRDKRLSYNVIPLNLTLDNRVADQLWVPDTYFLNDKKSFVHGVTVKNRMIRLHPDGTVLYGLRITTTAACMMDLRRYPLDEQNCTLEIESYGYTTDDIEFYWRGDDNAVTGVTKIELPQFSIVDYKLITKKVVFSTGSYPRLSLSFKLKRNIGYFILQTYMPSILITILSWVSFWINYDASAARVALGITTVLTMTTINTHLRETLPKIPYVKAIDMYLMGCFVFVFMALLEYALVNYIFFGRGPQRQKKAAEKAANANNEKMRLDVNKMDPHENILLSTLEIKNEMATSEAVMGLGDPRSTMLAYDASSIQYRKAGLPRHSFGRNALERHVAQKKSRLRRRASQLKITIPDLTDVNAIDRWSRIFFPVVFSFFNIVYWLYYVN
Chain of α4β2δ GABAAR (O14764 25-452 partner): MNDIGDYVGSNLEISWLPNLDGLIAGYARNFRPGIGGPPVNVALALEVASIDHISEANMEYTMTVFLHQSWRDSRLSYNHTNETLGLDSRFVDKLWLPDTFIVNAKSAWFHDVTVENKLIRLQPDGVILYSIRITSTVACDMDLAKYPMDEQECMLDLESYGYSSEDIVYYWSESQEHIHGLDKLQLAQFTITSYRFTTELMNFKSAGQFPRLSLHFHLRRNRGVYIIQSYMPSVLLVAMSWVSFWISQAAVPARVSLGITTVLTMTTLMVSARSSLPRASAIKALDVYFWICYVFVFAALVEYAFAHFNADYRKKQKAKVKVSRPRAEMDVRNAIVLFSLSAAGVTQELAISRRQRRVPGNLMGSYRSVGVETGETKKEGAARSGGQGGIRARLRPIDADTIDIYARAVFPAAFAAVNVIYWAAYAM

The compound `Oc1noc2c1CCNC2` [THIP, 4,5,6,7-tetrahydroisoxazolo[5,4-c]pyridin-3(2H)-one] came in with a Kd of 683 µM.
